Source: US9333194B2, “Use of ansamycin antibiotics and method of screening novel angiogenesis inhibitor” (Japan Science & Technology Agency, priority 2002, dated 2016)

Tested on: human retinal microvascular endothelial cells
Experiment: Angiogenesis-inhibiting signals (mRNA quantification by real-time quantitative PCR)
Format: cell-based
Conditions: various concentrations; for angiogenesis-inhibiting signals (changes of gene expression levels): four hours incubation, FIG. 6; for mRNA amount of c-myc, integrin-αv, integrin-β3: FIG. 6 legend
Method: Human retinal microvascular endothelial cells were rendered to grow exponentially in the presence of serum/growth factors/angiogenesis-promoting factors, and various concentrations of rifampicin, rifamycin SV and 3-formyl rifamycin were added. After four hours-incubation, RNA was extracted and subjected to mRNA quantification of various genes using aforementioned LightCycler-based highly sensitive real-time quantitative PCR. A, B and C represent the quantification results of c-myc gene; D, E and F represent those of integrin-αv gene; G, H and I represent those of integrin-β3 gene. Further, A, D and G indicate the changes of mRNA levels after adding rifampicin; B, E and H indicate those after adding rifamycin SV; C, F and I indicate those after adding 3-formyl rifamycin.

Row | Compound | angiogenesis-inhibiting signals (changes of gene expression levels) | mRNA amount of c-myc, integrin-αv, integrin-β3
1 | CO[C@H]1/C=C/O[C@@]2(C)Oc3c(C)c(O)c4c(O)c(c(C=O)c(O)c4c3C2=O)NC(=O)/C(C)=C\C=C\[C@H](C)[C@H](O)[C@@H](C)[C@@H](O)[C@@H](C)[C@H](OC(C)=O)[C@@H]1C [3-formyl rifamycin] | exhibit similar activity potently | inhibited in a concentration-dependent manner
2 | CO[C@H]1/C=C/O[C@@]2(C)Oc3c(C)c([O-])c4c(O)c(cc(O)c4c3C2=O)NC(=O)/C(C)=C\C=C\[C@H](C)[C@H](O)[C@@H](C)[C@@H](O)[C@@H](C)[C@H](OC(C)=O)[C@@H]1C.[Na+] [rifamycin SV] | exhibit similar activity potently | inhibited in a concentration-dependent manner
